Assay results: patent US20250345356A1, “TIRAPAZAMINE COMPOSITIONS AND METHODS” (priority 2024, published 2025)
Values joined by “and” are separate entries in the source; they are usually repeats but may differ in a detail not shown here. Equal values may be shown once. Read-outs that look alike come from different tables or passages of the source.

Columns and labels:
[1] = tested on: HCC; conditions: cited from earlier work
[2] = tested on: unresectable intermediate stage HCC; conditions: cited from earlier work
[3] = tested on: advanced NSCLC; conditions: cited from earlier work
[4] = mice, intravenous administration; cited from earlier work
[5] = cited from earlier work
[6] = cited from earlier work; remark: listed apart in the source
[7] = tested on: HCC; conditions: cited from earlier work; remark: listed apart in the source
[8] = Activation energy of degradation from stability studies; format: physicochemical; conditions: formulation without HP-beta-CD, long-term stability results
Method: Activation energy (Ea) is the least possible energy required to start a chemical reaction. Molecules need some kinetic energy or velocity to collide with other molecules to start a reaction. No reaction will take place if the collision doesn't happen, or if the molecules don't have enough kinetic energy. The energy needed to initiate the reaction is known as Activation energy.
The activation energy (Ea) of a reaction is measured in joules (J), kilojoules per mole (kJ/mol) or kilocalories per mole (kcal/mol)
The Activation Energy Formula is as follows: […]
Where A is a constant, k is the rate constant, Ea is the activation energy of degradation in kcal/mol, R is the universal gast constant (1.98 calKmole) and I is the absolute temperature (° K).
In the formulation without HP-beta-CD, Ea of TPZ is calculated as 35 kcal/mole based on the long-term stability results. For the HP-beta-CD new formulation, Ea of the complex is calculated at 44 kcal/mole using a new formulation methodology called “Accelerated Stability Assessment Program (ASAP)” that can be executed in a few weeks with a few storage conditions and temperature ranging from 40° C. to 70° C. inclusive. The higher the activation energy, the more kinetically stable the complex is.

## Nc1n[n+]([O-])c2ccccc2[n+]1[O-] [tirapazamine, 3-amino-1,2,4-benotriazine-1,4-di-N-oxide]
[1]; 17 patients
  CR or partial response (PR), objective response rate (ORR): 64.7%
  patients who achieved CR as the best target tumor lesion response: 47.1%
[1]; mRECIST criteria
  median Time to Progression: not reached
[2]; 15 patients who achieved CR by mRECIST
  median duration of target lesion response: not reached
[2]; 21 patients who achieved CR or PR
  median duration of target lesion response: not reached
[2]; 27 patients
  treatment emergent AE grade 3 or higher: ALT increased: 11.1%
  treatment emergent AE grade 3 or higher: AST increased: 14.8%
  treatment emergent AE grade 3 or higher: hypertension: 25.9%
  treatment-related AE: ALT increased: 7.4%
  treatment-related AE: AST increased: 7.4%
  treatment-related AE: bradycardia: 7.4%
  treatment-related AE: fatigue: 7.4%
  treatment-related AE: hypertension: 11.1%
[2]; 46 target lesions
  CR rate by lesions: 65.2%
  ORR (CR+PR) by lesions: 78.3%
[2]; CR patients
  local recurrence in the embolized territory: 13.3%
[2]; CR+PR patients
  local recurrence in the embolized territory: 28.6%
[2]; all cohorts, with TAE
  dose-limiting toxicity (DLT): no dose-limiting toxicity
[2]; mRECIST, 25 evaluable patients
  patients who achieved CR in target lesions: 60.0%
  patients who achieved CR+PR: 84.0%
[2]; two phase I studies, tirapazamine with TAE
  Complete Response (CR) rate: 50-60%
[2]; up to 20 mg/m^2 I.A.
  MTD of tirapazamine in combination with TAE: not established
[3]; arm 1 (with tirapazamine 260-330 mg/m^2) vs arm 2
  removed from treatment as a result of toxicity: 26%
[3]; arm 1 vs arm 2
  patients who developed ≥grade 3 febrile neutropenia: Twenty
[3]; tirapazamine added to paclitaxel and carboplatin
  survival compared with paclitaxel and carboplatin alone: does not result in improved survival
[4]
  LD10: 294 mg/kg
  LD50: 303 mg/kg
[5]; 3 mg/kg and 6 mg/kg i.v. with transient left HAL, Day 1
  necrosis of the left lobe of the liver (histopathology): 1%
[5]; 3 mg/kg or 6 mg/kg with left HAL
  survival after 1 and 7 days: survived
[5]; Day 1, dose-dependent
  serum alanine transaminase (ALT) level: elevated on Day 1
[5]; i.v. infusion
  potentially safe doses combined with transient left HAL: ≤ 6 mg/kg
[6]; 36-450 mg/m^2 i.v.
  tumor responses: no tumor responses were seen
[6]; human, in vivo, 330 mg/m2
  AUC of tirapazamine at which ototoxicity was not observed: ≤ 1252 µg·min/mL
[6]; human, in vivo, iv
  Maximally Tolerated Dose (MTD): 390 mg/m^2
  dose-limiting toxicities: reversible deafness and tinnitus
  duration of cramps: 1 to 14 days
  mean Vdss: 39 ± 12.5 L
  mean clearance (±SD): 624.2 ± 157 mL/min
  onset of muscle cramps after the start of infusion: 2.4 to 24 h
[6]; human, in vivo
  increase in AUC(0-inf): ~19 fold
[7]; Day 1 post-treatment, tirapazamine 3 mg/kg, doxorubicin 10 mg/kg, transient left HAL
  necrosis in the HCC within the territory of HAL: more than 99%
[7]; Day 7, 3 mg/kg with left HAL, H&E
  necrosis of HCCs in the territory of the left HAL: 90-99%
[7]; Day 7, three mice, 3 mg/kg with left HAL, 3 mg/kg
  tumor necrosis, individual mice: 90% and 99% (2×)
[7]; Day 7, with left HAL
  necrosis in the tumor-free part of the left lobe of the liver: no evidence of necrosis
[8]
  activation energy of degradation (Ea): 35 kcal/mol
